Substitutions are numbered along the chain they refer to. Where no end group is shown, it is not given here.
Tests used:
Assay type in all cases: cell-based
human ASIC3 [1] = target: T1, human ASIC3 (Homo sapiens, UniProt Q9UHC3); assay: Time-dependence of WRPRFa wash off from activated (pH 6.3) and resting (pH 8.0) ASIC3
T1 construct: CHO cells stably expressing human ASIC3 (NM_004769.1)
T1 sequence (Q9UHC3 1-531): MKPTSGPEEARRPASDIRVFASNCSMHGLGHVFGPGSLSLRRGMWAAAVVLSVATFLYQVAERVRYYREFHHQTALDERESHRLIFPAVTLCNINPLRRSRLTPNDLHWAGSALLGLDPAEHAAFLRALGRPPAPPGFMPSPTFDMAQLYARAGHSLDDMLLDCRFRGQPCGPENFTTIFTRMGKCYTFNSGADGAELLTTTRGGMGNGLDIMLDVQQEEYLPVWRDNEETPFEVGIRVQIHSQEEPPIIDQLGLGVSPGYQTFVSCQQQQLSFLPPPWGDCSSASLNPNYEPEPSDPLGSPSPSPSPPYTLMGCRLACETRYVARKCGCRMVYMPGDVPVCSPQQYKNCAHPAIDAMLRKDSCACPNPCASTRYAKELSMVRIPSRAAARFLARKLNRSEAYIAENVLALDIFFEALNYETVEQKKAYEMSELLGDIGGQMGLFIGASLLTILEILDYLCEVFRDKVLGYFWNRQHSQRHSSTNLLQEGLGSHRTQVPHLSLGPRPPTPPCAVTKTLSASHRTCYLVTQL
Method: Next, we assessed the rate at which WRPRFa leaves the channel from the activated and closed states. We preincubated cells with WRPRFa to load channels with peptide, then used two different protocols to remove the peptide. For dissociation from the activated state, we preincubated cells at pH 8.0 with 30 µM WRPRFa, then continuously applied pH 6.3 without WRPRFa to activate the channels while washing off bound peptide. HEK cells poorly tolerate long periods of acid application and sodium influx, so acid application was kept to 1 min. […] The first decrease of current likely arose from desensitization of unbound channels, and possibly also from an initial dissociation of peptide from activated channels, which subsequently desensitized.
For dissociation from resting state channels, we continuously applied pH 8.0 without peptide to remove WRPRFa. Every 20 s the cells were given a 5 s application of pH 6.3 to quantify the remaining sustained current. A 5 s activation was used to minimize wash-off from the activated state, which was deemed negligible based on the observed off-rate under the pH 6.3 condition. The sustained current was about 95% gone after 3 min, with a time constant of 43.5 s (95% CI: 39.0–48.4 s) (Fig. 3D and E). […]

human ASIC3 [2] = target: T1, human ASIC3; conditions: 30 µM, QPatch II
ASIC131 = target: T2, ASIC131 (Homo sapiens, UniProt Q9UHC3); assay: MPC WRPRFa concentration-response on concatemer ASIC131; conditions: read-out: lower limit EC50
T2 construct: placing human ASIC1a and human ASIC3 ORFs in tandem; expressed in transfected cells; host or cells: WT CHO cells (85050302, Sigma), transient transfection
T2 sequence (Q9UHC3 1-531): T1 sequence (Q9UHC3 1-531)
Method: (§1) CHO and HEK cells were tested in the whole-cell configuration on MPC platforms using an Axopatch 200B amplifier (Axon Instruments, San Jose, CA) and a Digidata 1322A or Digidata 1440A digitizer (Axon) using pClamp 9.2 or 10.7 (Molecular Devices, San Jose, CA), respectively. When testing transfected cells, red fluorescence from the cleaved mCherry reporter was used to identify cells expressing ASIC3, ASIC131, or ASIC313. For cells expressing transfected ASIC1a or ASIC2a, the green signal from the cleaved eGFP reporter was used. All electrophysiology data were analyzed with Clampfit 11.1 (Molecular Devices).
(§2) For peptide concentration-response curves, Bottom was set to 0 and Top was constrained to ≤ 1 for peptides that approached plateau phase or where I3s/Ipk reached 1. […] For activation- or desensitization-pH curves, Bottom was set to 0 and Top constrained to 1.

ASIC3 E78Q = target: T3, ASIC3 E78Q (Homo sapiens, UniProt Q9UHC3, E78Q); assay: MPC peptide activity on ASIC3 E78Q mutant (I3s/Ipk, peak current, double mutant cycle); conditions: read-out: EC50 (95% CI)
T3 construct: human ASIC3 (NM_004769.4); P2A-mCherry reporter (C, cleaved yes); expressed in transfected cells; host or cells: CHO cells (85050302, Sigma), transient transfection
T3 sequence (Q9UHC3 1-531 E78Q): T1 sequence (Q9UHC3 1-531) with E78Q
Method: We individually mutated the four glutamates to glutamine to remove their charge but maintain the side chain structure (Fig. 4C). We tested each mutant by incubating HEK cells stably expressing ASIC3 or CHO cells transfected with mutant ASIC3 with 30 µM WRPRFa before a pH 6.3 acid stimulus.
We then asked which of the two WRPRFa arginines interacts with the E78/E421 pair. […] To this end, we used a double mutant cycle approach to identify coupling between site 2 or site 4 of WRPRFa with the E78/E421 pair. In this case, the double mutant cycle experiment compared the change in potency caused by single mutations in either WRPRFa or ASIC3 against the change in potency caused by simultaneous mutations in WRPRFa and ASIC3. A coupling coefficient (Ω) can be calculated by dividing the product of the WT/WRPRFa potency and double mutant potency by the product of the two single mutant potencies.
The numbering of ASIC3 amino acids is based on RefSeq NP_004760.1. Plasmids were transfected into CHO cells using Lipofectamine 3000 (Thermo) according to the manufacturer’s protocol. Cells were used for patch-clamp recordings 24–48 h after transfection.
as §1, §2

human ASIC3 [3] = target: T1, human ASIC3; conditions: from pH-dependence of activation
human ASIC3 [4] = target: T1, human ASIC3; assay: QPatch II peptide concentration-response (I3s/Ipk); conditions: WT ASIC3, QPatch II, read-out: EC50 (95% CI)
Method: RFamide peptide activity on ASIC3 was measured on the QPatch II platform (Sophion, Ballerup, Denmark) using either a CHO or HEK stable cell line and analyzed with Sophion Analyzer software (version 5.2). Prior to recording, the cells were washed twice in PBS (Gibco, Paisley, UK) and treated with Detachin (Genlantis, San Diego) for 3 min, then resuspended in their respective growth media without serum for a concentration of 2 × 10^6 cells/ml. A minimum of 5 mL of cells was added to the QStirrer, which was placed on the deck of the QPatch II and allowed to incubate at room temperature for a minimum of 20 min.
The bath solution contained 135 mM NaCl, 5 mM KCl, 4.8 mM CaCl2, 1 mM MgCl2, 10 mM HEPES, 10 mM MES, and 10 mM glucose adjusted to pH 7.4 with NaOH. The intracellular solution contained 65 mM CsF, 65 mM CsCl, 10 mM HEPES, 5 mM EGTA, 1 mM MgCl2, adjusted to pH 7.4 with CsOH. Cells were held at -60 mV and ASIC currents were evoked with 3 s applications of pH 6.3 buffer. Peptides were preincubated for at least 2 min. The extracellular solution was changed by dispensing 5 µL of buffer through the ~1.7 µL recording chamber, with a solution switch time of 100 ms, that exchanges 99% of the solution. Signals were acquired at 1 kHz and low-pass filtered at 300 Hz. Experiments performed on QPatch II are specifically indicated in the text.

Question: What does the source list for WRPRF-NH2 [WRPRFa]?
Answer: current decrease within first 10 s at pH 6.3 (human ASIC3 [1]; activated state wash off): about 22%; sustained current gone after 3 min (human ASIC3 [1]; pH 8.0 wash off): about 95%; channels affected (human ASIC3 [2]): 80%; EC50 (ASIC131): ≥ 32.4 µM; EC50 (ASIC3 E78Q): 0.206 µM; peptide-bound channels activated by pH 6.3 (human ASIC3 [3]): 99.7%; EC50 (human ASIC3 [4]): 6.31 µM
